# Measurements published in ChEMBL document CHEMBL2073904, “Effect of levothyroxine administration on intestinal P-glycoprotein expression: consequences for drug disposition” (Clin Pharmacol Ther, 2002).
# Key:
# [1] = target: T1, ATP-dependent translocase ABCB1 (Homo sapiens, UniProt P08183); experiment: TP_TRANSPORTER: RT-PCR in vivo, duodenal; format: functional, organism-based, Duodenum
# [2] = target: T1, ATP-dependent translocase ABCB1; experiment: TP_TRANSPORTER: immunohistochemistry in vivo, duodenum; format: functional, organism-based
# T1 sequence (P08183 whole entry): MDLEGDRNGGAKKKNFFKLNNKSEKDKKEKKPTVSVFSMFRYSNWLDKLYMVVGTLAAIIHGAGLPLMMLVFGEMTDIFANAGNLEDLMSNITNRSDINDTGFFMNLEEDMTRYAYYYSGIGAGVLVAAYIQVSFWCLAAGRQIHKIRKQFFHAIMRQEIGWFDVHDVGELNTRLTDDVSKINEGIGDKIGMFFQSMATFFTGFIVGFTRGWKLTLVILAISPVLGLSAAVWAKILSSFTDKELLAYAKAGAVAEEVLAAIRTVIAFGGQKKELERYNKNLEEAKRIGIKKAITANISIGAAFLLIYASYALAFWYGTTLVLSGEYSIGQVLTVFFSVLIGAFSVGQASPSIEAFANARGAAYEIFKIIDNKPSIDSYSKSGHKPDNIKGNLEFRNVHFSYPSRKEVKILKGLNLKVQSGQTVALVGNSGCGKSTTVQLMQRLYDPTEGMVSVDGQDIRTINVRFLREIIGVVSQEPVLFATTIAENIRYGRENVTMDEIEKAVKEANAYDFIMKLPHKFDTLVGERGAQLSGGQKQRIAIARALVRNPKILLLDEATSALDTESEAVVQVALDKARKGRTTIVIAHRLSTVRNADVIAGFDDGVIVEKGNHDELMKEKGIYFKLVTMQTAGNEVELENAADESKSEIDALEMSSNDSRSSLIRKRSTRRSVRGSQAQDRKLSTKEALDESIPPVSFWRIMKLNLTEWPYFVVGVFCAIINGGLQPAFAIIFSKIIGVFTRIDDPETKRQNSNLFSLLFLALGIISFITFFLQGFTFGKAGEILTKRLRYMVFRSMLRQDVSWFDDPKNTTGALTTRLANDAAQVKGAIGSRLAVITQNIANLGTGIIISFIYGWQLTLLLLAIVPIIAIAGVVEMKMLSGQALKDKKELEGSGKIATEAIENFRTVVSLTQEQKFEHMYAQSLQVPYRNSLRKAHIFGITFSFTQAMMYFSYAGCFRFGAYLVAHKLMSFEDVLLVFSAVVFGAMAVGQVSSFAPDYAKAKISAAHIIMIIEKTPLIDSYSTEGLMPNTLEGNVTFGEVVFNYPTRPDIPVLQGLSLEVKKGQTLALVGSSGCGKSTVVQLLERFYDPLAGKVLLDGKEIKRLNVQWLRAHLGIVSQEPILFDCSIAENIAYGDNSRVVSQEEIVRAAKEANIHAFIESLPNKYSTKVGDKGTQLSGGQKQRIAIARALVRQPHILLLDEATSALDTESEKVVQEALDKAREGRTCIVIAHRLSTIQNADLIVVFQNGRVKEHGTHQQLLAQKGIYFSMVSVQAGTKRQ
smiles,measurement,setting,value
N[C@@H](Cc1cc(I)c(Oc2cc(I)c(O)c(I)c2)c(I)c1)C(=O)O [LEVOTHYROXINE],Activity,[1],inducer [+]
same,Activity,[2],inducer [+]
